Patent US7473688B2, “Indolobenzazepine HCV NS5B inhibitors” (Bristol-Myers Squibb Company, priority 2005, dated 2009)
Read-outs that look alike come from different tables or passages of the source.

Key:
[1] = molecular target: T1, HCV NS5B (Hepatitis C virus genotype 1b, UniProt Q9WMX2); assay: HCV NS5B RdRp enzyme assay (preincubation protocol); type: biochemical; settings: Table 1, read-out: IC50*
T1 construct: The protein was expressed with an 18 amino acid C-terminal truncation to enhance the solubility; made in house; host or cells: E. coli BL21 (DE3), pET21a
How it was run: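 Preincubation format: enzyme (14 nM, genotype 1b, 18-residue C-terminal truncation) meets diluted compound first; reaction started with bead-bound biotinylated dT12 primer, polyA template 0.2 nM and 0.29 μM 3H-UTP. Run 4 h, 30 °C in Hepes pH 7.5; scintillation proximity signal; IC50 fitted from seven inhibitor levels.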

[2] = system: HCV replicon; assay: HCV replicon FRET assay; type: cell-based; settings: Hepatitis C virus
Excerpt: FRET Assay Preparation. To perform the HCV FRET screening assay, 96-well cell culture plates were used. The FRET peptide (Anaspec, Inc.) (Taliani et al., Anal. Biochem. 1996, 240, 60-67) contains a fluorescence donor, EDANS, near one end of the peptide and an acceptor, DABCYL, near the other end. The fluorescence of the peptide is quenched by […] resonance energy transfer (RET) between the donor and the acceptor, but as the NS3 protease cleaves the peptide the products are released from RET quenching and the fluorescence of the donor becomes apparent. The assay reagent was made as follows: 5× cell Luciferase cell culture lysis reagent from Promega (#E153A) diluted to 1× with dH2O, NaCl added to 150 mM final, the FRET peptide diluted to 20 uM final from a 2 mM stock.
To prepare plates, HCV replicon cells, with or without a Renilla luciferase reporter gene, were trypsinized and placed into each well of a 96-well plate with titrated test compounds added in columns 3 through 12; columns 1 and 2 contained a control compound (HCV protease inhibitor), and the bottom row contained cells without compound. The plates were then placed in a CO2 incubator at 37° C.
Assays. Subsequent to addition of the test compounds described above (FRET Assay Preparation), at various times the plate was removed and Alamar blue solution (Trek Diagnostics, #00-100) was added per well as a measure of cellular toxicity. After reading in a Cytoflour 4000 instrument (PE Biosystems), plates were rinsed with PBS and then used for FRET assay by the addition of 30 ul of the FRET peptide assay reagent described above (FRET Assay Preparation) per well. The plate was then placed into the Cytoflour 4000 instrument which had been set to 340 excite/490 emission, automatic mode for 20 cycles and the plate read in a kinetic mode. Typically, the signal to noise using an endpoint analysis after the reads was at least three-fold. Alternatively, after Alamar blue reading, plates were rinsed with PBS, 50 ul of DMEM (high glucose) without phenol red was added and plates were then used for luciferase assay using the Promega Dual-Glo Luciferase Assay System.
Compound analysis was determined by quantification of the relative HCV replicon inhibition and the relative cytotoxicity values. To calculate cytoxicity values, the average Alamar Blue fluorescence signals from the control wells were set as 100% non-toxic. The individual signals in each of the compound test wells were then divided by the average control signal and multiplied by 100% to determine […]. To calculate the HCV replicon inhibition values, an average background value was obtained from the two wells containing the highest amount of HCV protease inhibitor at the end of the assay period. These numbers were similar to those obtained from naïve Huh-7 cells.
The background numbers were then subtracted from the average signal obtained from the control wells and this number was used as 100% activity. The individual signals in each of the compound test wells were then divided by the averaged control values after background subtraction and multiplied by 100% to determine percent activity. EC50 values for a protease inhibitor titration were calculated as the concentration which caused a 50% reduction in FRET or luciferase activity. The two numbers generated for the compound plate, percent cytoxicity and percent activity were used to determine compounds of interest for further analysis.

[3] = Table 1, FRET assay, read-out: EC50*

T1 sequence (Q9WMX2 2420-2992): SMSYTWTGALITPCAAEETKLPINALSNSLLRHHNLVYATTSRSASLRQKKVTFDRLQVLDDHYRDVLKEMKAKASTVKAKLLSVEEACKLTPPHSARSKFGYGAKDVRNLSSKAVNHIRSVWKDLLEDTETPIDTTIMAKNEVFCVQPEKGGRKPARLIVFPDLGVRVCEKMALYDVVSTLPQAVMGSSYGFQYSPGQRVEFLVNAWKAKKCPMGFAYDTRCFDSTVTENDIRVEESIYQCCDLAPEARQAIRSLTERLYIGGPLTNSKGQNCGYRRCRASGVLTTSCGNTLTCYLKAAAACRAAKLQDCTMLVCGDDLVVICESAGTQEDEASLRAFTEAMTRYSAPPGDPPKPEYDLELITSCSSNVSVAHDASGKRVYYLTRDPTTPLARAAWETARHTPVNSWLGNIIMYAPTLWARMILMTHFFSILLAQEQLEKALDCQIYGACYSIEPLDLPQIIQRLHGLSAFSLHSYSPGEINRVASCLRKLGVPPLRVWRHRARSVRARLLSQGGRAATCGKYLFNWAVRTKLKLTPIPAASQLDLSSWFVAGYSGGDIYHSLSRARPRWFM

Row | SMILES | IC50 [1] [nM] | EC50 [2, 3] [nM] | EC50 [2] [nM]
1 | O=C(O)c1ccc2c(C3CCCCC3)c3n(c2c1)CC(C(=O)N1CCN(c2ncccn2)CC1)=Cc1ccccc1-3 | 10 to 1000 | 70 to 1000 | 
2 | CN(C)S(=O)(=O)NC(=O)c1ccc2c(C3CCCCC3)c3n(c2c1)CC(C(=O)N1CCN(c2ncccn2)CC1)=Cc1ccccc1-3 | 10 to 1000 | 70 to 1000 | 
3 | CN(C)S(=O)(=O)NC(=O)c1ccc2c(C3CCCCC3)c3n(c2c1)CC(C(=O)N1CCN(C(=O)N2CCOCC2)CC1)=Cc1ccccc1-3 | 10 to 1000 | 70 to 1000 | 
4 | CN(C)S(=O)(=O)NC(=O)c1ccc2c(C3CCCCC3)c3n(c2c1)CC(C(=O)N1CCN(C(=O)OC(C)(C)C)CC1)=Cc1ccccc1-3 | 10 to 1000 | 70 to 1000 | 
5 | CN(C)S(=O)(=O)NC(=O)c1ccc2c(C3CCCCC3)c3n(c2c1)CC(C(=O)N1CCNC(=O)C1)=Cc1ccccc1-3 | 10 to 1000 | 70 to 1000 | 
6 | CN(C(=O)C1=Cc2ccccc2-c2c(C3CCCCC3)c3ccc(C(=O)NS(=O)(=O)N(C)C)cc3n2C1)C1CCS(=O)(=O)C1 (stereo not drawn) | 10 to 1000 | 70 to 1000 | 
7 | CN(C)S(=O)(=O)NC(=O)c1ccc2c(C3CCCCC3)c3n(c2c1)CC(C(=O)N1CCS(=O)(=O)CC1)=Cc1ccccc1-3 | 10 to 1000 | 70 to 1000 | 
8 | COC(=O)c1ccc2c(C3CCCCC3)c3n(c2c1)CC(C(=O)N(C)NC(C)=O)=Cc1ccccc1-3 | > 1000 | 1000 to 10000 | 
9 | CC(=O)NN(C)C(=O)C1=Cc2ccccc2-c2c(C3CCCCC3)c3ccc(C(=O)NS(=O)(=O)N(C)C)cc3n2C1 | 10 to 1000 | 70 to 1000 | 
10 | O=C(O)c1ccc2c(C3CCCCC3)c3n(c2c1)C[C@@H](NC(=O)N1CCOCC1)Cc1ccccc1-3 | 10 to 1000 | 70 to 1000 | 
11 | O=C(O)c1ccc2c(C3CCCCC3)c3n(c2c1)C[C@H](NC(=O)N1CCOCC1)Cc1ccccc1-3 | 10 to 1000 | 70 to 1000 | 
12 | COc1ccc2c(c1)C=C(C(=O)N(C)CC(=O)N(C)C)Cn1c-2c(C2CCCCC2)c2ccc(C(=O)O)cc21 | 10 to 1000 | 70 to 1000 | 
13 | C[C@@H]1CN(C(=O)NC2Cc3ccccc3-c3c(C4CCCCC4)c4ccc(C(=O)NS(=O)(=O)N(C)C)cc4n3C2)C[C@H](C)O1 (stereo partly drawn) | 10 to 1000 | 70 to 1000 | 
14 | O=C(NC1Cc2ccccc2-c2c(C3CCCCC3)c3ccc(C(=O)O)cc3n2C1)OCc1ccccc1 (stereo not drawn) | 10 to 1000 | 70 to 1000 | 
15 | COC(=O)c1ccc2c(C3CCCCC3)c3n(c2c1)CC(C(=O)N1CCC(N2CCOCC2)CC1)=Cc1ccccc1-3 | > 1000 | 1000 to 10000 | 
16 | O=C(O)c1ccc2c(C3CCCCC3)c3n(c2c1)CC(C(=O)N1CCC(N2CCOCC2)CC1)=Cc1ccccc1-3 | 10 to 1000 | 70 to 1000 | 
17 | CN(C)S(=O)(=O)NC(=O)c1ccc2c(C3CCCCC3)c3n(c2c1)CC(C(=O)N1CCC(N2CCOCC2)CC1)=Cc1ccccc1-3 | 10 to 1000 | 70 to 1000 | 
18 | O=C(O)c1ccc2c(C3CCCCC3)c3n(c2c1)CC(C(=O)N1CCC(N2C(=O)Cc4ccccc42)CC1)=Cc1ccccc1-3 | 10 to 1000 |  | 70 to 1000
19 | O=C(O)c1ccc2c(C3CCCCC3)c3n(c2c1)CC(C(=O)N1CCC(C(=O)N2CCCC2)CC1)=Cc1ccccc1-3 | 10 to 1000 | 70 to 1000 | 
20 | O=C(O)c1ccc2c(C3CCCCC3)c3n(c2c1)CC(C(=O)N1CCC(N2CCCC2=O)CC1)=Cc1ccccc1-3 | 10 to 1000 | 70 to 1000 | 

Row | SMILES | IC50 [1] [nM] | EC50 [2, 3] [nM] | EC50 [2] [nM]
21 | CN(C)S(=O)(=O)NC(=O)c1ccc2c(C3CCCCC3)c3n(c2c1)CC(C(=O)N1CCC(N2CCCC2=O)CC1)=Cc1ccccc1-3 | 10 to 1000 | 70 to 1000 | 
22 | CC(=O)NC1CCN(C(=O)C2=Cc3ccccc3-c3c(C4CCCCC4)c4ccc(C(=O)O)cc4n3C2)CC1 | 10 to 1000 | 70 to 1000 | 
23 | O=C(O)c1ccc2c(C3CCCCC3)c3n(c2c1)CC(C(=O)N1CCC(n2ccnn2)CC1)=Cc1ccccc1-3 | 10 to 1000 | 70 to 1000 | 
24 | COC(=O)c1ccc2c(C3CCCCC3)c3n(c2c1)CC(C(=O)N1CCC(N2CCCCC2=O)CC1)Cc1ccccc1-3 (stereo not drawn) | > 1000 | 70 to 1000 | 
25 | O=C(O)c1ccc2c(C3CCCCC3)c3n(c2c1)CC(C(=O)N1CCC(N2CCCCC2=O)CC1)Cc1ccccc1-3 (stereo not drawn) | 10 to 1000 | 70 to 1000 | 
26 | CS(=O)(=O)NC(=O)c1ccc2c(C3CCCCC3)c3n(c2c1)CC(C(=O)N1CCC(N2CCCC2=O)CC1)=Cc1ccccc1-3 | 10 to 1000 | 1000 to 10000 | 
27 | CN(C)S(=O)(=O)NC(=O)c1ccc2c(C3CCCCC3)c3n(c2c1)CC(C(=O)N1CCC(N2CCCCC2=O)CC1)Cc1ccccc1-3 (stereo not drawn) | 10 to 1000 | 70 to 1000 | 
28 | CN(C)S(=O)(=O)NC(=O)c1ccc2c(C3CCCCC3)c3n(c2c1)CC(C(=O)N1CCC(C(=O)N2CCCC2)CC1)=Cc1ccccc1-3 | 10 to 1000 | 70 to 1000 | 
29 | CN(C)S(=O)(=O)NC(=O)c1ccc2c(C3CCCCC3)c3n(c2c1)CC(C(=O)N1CCC(n2ccnn2)CC1)=Cc1ccccc1-3 | 10 to 1000 | 70 to 1000 | 
30 | CN(C)S(=O)(=O)NC(=O)c1ccc2c(C3CCCCC3)c3n(c2c1)CC(C(=O)N1CCC(N2CCOCC2)CC1)Cc1ccccc1-3 (stereo not drawn) | 10 to 1000 | 70 to 1000 | 
31 | COC(=O)c1ccc2c(C3CCCCC3)c3n(c2c1)CC(C(=O)N1CCC(N2CCOCC2)CC1)=Cc1cc(OC)ccc1-3 | > 1000 | 1000 to 10000 | 
32 | CCN(CC)C(=O)C1CCCN(C(=O)C2=Cc3ccccc3-c3c(C4CCCCC4)c4ccc(C(=O)NS(=O)(=O)N(C)C)cc4n3C2)C1 (stereo not drawn) | 10 to 1000 | 70 to 1000 | 
33 | O=C(O)c1ccc2c(C3CCCCC3)c3n(c2c1)CC(C(=O)N1CCC(N2CCOCC2)CC1)=Cc1ccc(Cl)cc1-3 | > 1000 | 1000 to 10000 | 
34 | COc1ccc2c(c1)C=C(C(=O)N1CCC(N3CCOCC3)CC1)Cn1c-2c(C2CCCCC2)c2ccc(C(=O)O)cc21 | 10 to 1000 | 70 to 1000 | 
35 | CN(C)S(=O)(=O)NC(=O)c1ccc2c(C3CCCCC3)c3n(c2c1)CC(C(=O)N1CCC(N(C2CC2)S(=O)(=O)c2ccccc2)CC1)=Cc1ccccc1-3 | 10 to 1000 | 70 to 1000 | 
36 | CN(C)S(=O)(=O)NC(=O)c1ccc2c(C3CCCCC3)c3n(c2c1)CC(C(=O)N1CCC(N2CCC(F)(F)CC2)CC1)=Cc1ccccc1-3 | 10 to 1000 | 70 to 1000 | 
37 | CN(C)S(=O)(=O)NC(=O)c1ccc2c(C3CCCCC3)c3n(c2c1)CC(C(=O)N1CCC(F)(F)CC1)=Cc1ccccc1-3 | 10 to 1000 | 70 to 1000 | 
38 | CN(C)S(=O)(=O)NC(=O)c1ccc2c(C3CCCCC3)c3n(c2c1)CC(C(=O)N1CCCC(F)(F)C1)=Cc1ccccc1-3 | 10 to 1000 | 70 to 1000 | 
39 | COc1ccc2c(c1)C=C(C(=O)N1CCC(N3CCOCC3)CC1)Cn1c-2c(C2CCCCC2)c2ccc(C(=O)NS(=O)(=O)N(C)C)cc21 | 10 to 1000 | 70 to 1000 | 
